Results published in patent publication US7094752B2 (Chiron Corporation, priority 1997, dated 2006).
Read-outs that look alike come from different tables or passages of the source. Marks after values point to notes of the source that are not given here. Square brackets hold non-standard residues; d marks the D form. Peptide text beside a SMILES is read from it.

How the values were obtained:
soluble uPAR [1] = target: T1, soluble uPAR (Homo sapiens, UniProt Q03405); conditions: for receptor binding activity, alanine scan of peptide 9: compared to peptide 9; for % Inhibition 2.5 uM: 2500.0; for % Inhibition 5 uM: 5000.0
soluble uPAR [2] = target: T1, soluble uPAR; type: binding; set-up: sUPAR, soluble truncated form of the urokinase receptor; made in house; host or cells: baculovirus-infected Sf9 insect cells; conditions: for % Inhibition 2.5 uM: 2500.0; for % Inhibition 5 uM: 5000.0
Method: Streptavidin, 100 μl (0.1 mg/ml) in 50 mM Na2CO3, pH 9.6, was added to MaxiSorp wells (Nunc), incubated overnight at 4 C, and then washed with PBS/BSA. Biotinylated sUPAR (25 nM in PBS/BSA) was added to the wells and incubated for 2 hours at room temperature prior to washing. Competitive peptide inhibitors were added to the wells immediately prior to addition of the bacteriophage. The wells were incubated for one hour at room temperature, then washed and bound bacteriophage eluted with 6M urea in 0.1N HCl, pH 2.5. After 15 minutes, the urea eluate was brought to neutral pH by addition of 2M Tris base and the bacteriophage titers of input stocks and elutions measured by plaque formation assay. Results were expressed as the percent of input bacteriophage which bind to the wells. Alternatively, the amount of bacteriophage was determined in an ELISA where phage were preincubated with HRP-conjugated anti-M13 antibody for 30 minutes at room temperature before dispensing into wells prepared as above and incubated for one hour at room temperature. The final anti-M13 conjugate dilution was 1:4000. After washing, TMB substrate (100 μl/well) was added and color development was stopped with 0.8N H2SO4 (100 μl/well). The absorbance at 450 nm was then measured in a 96 well plate reader.
In a uPAR binding assay, the following analogs were tested in a competition with phage displaying either peptide 25 or peptide 9. The analogs comprise both natural and unnatural amino acids.
The analogs were tested in an assay utilizing soluble uPAR, similar to the method described in Example 2. The analogs were tested for their ability to compete with phage displaying either peptide 9 or peptide 25. Analogs 3–61 were tested in competition with peptide 25. Analogs 62–96 were tested in competition with peptide 9. Approximately 10^8 plaque forming units of the phage were used in the assay.
The analogs were tested at a concentration at 40 μM in the uPAR competition assay with phage displaying peptide 25. The results below show which analogs were active.
Analogs 31–61 were tested for their ability to compete with phage displaying peptide 25. The active analogs were tested further at two concentrations, 5 μM and 2.5 μM. These concentrations were calculated based on the synthesis reactions. However, the sequences * were further tested and determined to contain high amounts of amino acids and the quantity tested could have been higher than 5 μM or 2.5 μM.

T1 sequence (Q03405 23-305 limits assumed): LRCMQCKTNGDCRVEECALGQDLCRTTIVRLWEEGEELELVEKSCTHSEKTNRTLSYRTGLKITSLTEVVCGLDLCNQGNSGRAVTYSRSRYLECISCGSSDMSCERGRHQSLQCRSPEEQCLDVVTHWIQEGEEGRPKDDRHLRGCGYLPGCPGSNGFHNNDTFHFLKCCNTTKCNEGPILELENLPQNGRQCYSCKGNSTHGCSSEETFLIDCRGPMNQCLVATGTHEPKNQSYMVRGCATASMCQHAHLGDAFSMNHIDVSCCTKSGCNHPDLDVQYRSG

| Compound | receptor binding activity, alanine scan of peptide 9 (soluble uPAR [1]) | % Inhibition 2.5 uM (soluble uPAR [1]) | % Inhibition 5 uM (soluble uPAR [1]) | further results |
| --- | --- | --- | --- | --- |
| AEFFKLGPNGYAYLHSA [Analog 75] | destroyed receptor binding activity | – | – | – |
| CSCC[C@H](NC(=O)[C@H](Cc1ccc(O)cc1)NC(=O)CNC(=O)[C@H](CC(C)C)NC(=O)[C@H](CO)NC(=O)[C@H](CC(C)C)NC(=O)[C@H](Cc1c[nH]cn1)NC(=O)[C@H](Cc1c[nH]cn1)NC(=O)[C@H](Cc1ccc(O)cc1)NC(=O)[C@@H](NC(=O)[C@H](CO)NC(=O)[C@H](CCC(=O)O)NC(=O)[C@H](C)N)[C@@H](C)O)C(=O)N[C@@H](Cc1ccc(O)cc1)C(=O)N[C@H](C(=O)N[C@H](CC(C)C)C(=O)N[C@@H](CC(N)=O)C(N)=O)[C@@H](C)O [Analog 60] (H-AESTYHHLSLGYMYT[dL]N-NH2) | – | – | – | % Inhibition 2.5 uM (soluble uPAR [2]): 22%; % Inhibition 5 uM (soluble uPAR [2]): 75% |
| CC(C)C[C@H](NC(=O)[C@H](CCCCN)NC(=O)[C@H](Cc1ccccc1)NC(=O)[C@H](Cc1ccccc1)NC(=O)[C@H](CCC(=O)O)NC(=O)[C@@H](C)N)C(=O)NCC(=O)N1CCC[C@H]1C(=O)N[C@@H](CC(N)=O)C(=O)NCC(=O)N[C@@H](Cc1ccc(O)cc1)C(=O)N[C@H](C(=O)N[C@@H](Cc1ccc(O)cc1)C(=O)N[C@@H](CC(C)C)C(=O)N[C@@H](Cc1c[nH]cn1)C(=O)N[C@@H](CO)C(=O)N[C@@H](C)C(N)=O)C(C)C [Analog 82] (H-[dA]EFFKLGPNGYVYLHSA-NH2) | – | 24* % | 41% | – |
| AAFFKLGPNGYVYLHSA [Analog 65] | decreased but did not destroy | – | – | – |
| CSCC[C@H](NC(=O)[C@H](Cc1ccc(O)cc1)NC(=O)CNC(=O)[C@H](CC(C)C)NC(=O)[C@H](CO)NC(=O)[C@H](CC(C)C)NC(=O)[C@H](Cc1c[nH]cn1)NC(=O)[C@H](Cc1c[nH]cn1)NC(=O)[C@H](Cc1ccc(O)cc1)NC(=O)[C@@H](NC(=O)[C@H](CO)NC(=O)[C@@H](CCC(=O)O)NC(=O)[C@H](C)N)[C@@H](C)O)C(=O)N[C@@H](Cc1ccc(O)cc1)C(=O)N[C@H](C(=O)N[C@@H](CC(C)C)C(=O)N[C@@H](CC(N)=O)C(N)=O)[C@@H](C)O [Analog 47] (H-A[dE]STYHHLSLGYMYTLN-NH2) | – | – | – | % Inhibition 2.5 uM (soluble uPAR [2]): 35%; % Inhibition 5 uM (soluble uPAR [2]): 61% |
| CC(C)C[C@H](NC(=O)[C@H](CCCCN)NC(=O)[C@H](Cc1ccccc1)NC(=O)[C@H](Cc1ccccc1)NC(=O)[C@H](CCC(=O)O)NC(=O)[C@H](C)N)C(=O)NCC(=O)N1CCC[C@H]1C(=O)N[C@@H](CC(N)=O)C(=O)N[C@H](CO)C(=O)N[C@@H](Cc1ccc(O)cc1)C(=O)N[C@H](C(=O)N[C@@H](Cc1ccc(O)cc1)C(=O)N[C@@H](CC(C)C)C(=O)N[C@@H](Cc1c[nH]cn1)C(=O)N[C@@H](CO)C(=O)N[C@@H](C)C(N)=O)C(C)C [Analog 80] (H-AEFFKLGPN[dS]YVYLHSA-NH2) | – | 89% | 95% | – |
| CC(C)C[C@H](NC(=O)[C@H](CCCCN)NC(=O)[C@H](Cc1ccccc1)NC(=O)[C@H](Cc1ccccc1)NC(=O)[C@H](CCC(=O)O)NC(=O)[C@H](C)N)C(=O)NCC(=O)N1CCC[C@H]1C(=O)N[C@@H](CC(N)=O)C(=O)NCC(=O)N[C@@H](Cc1ccc(O)cc1)C(=O)N[C@H](C(=O)N[C@@H](Cc1ccc(O)cc1)C(=O)N[C@@H](CC(C)C)C(=O)N[C@H](Cc1c[nH]cn1)C(=O)N[C@@H](CO)C(=O)N[C@@H](C)C(N)=O)C(C)C [Analog 94] (H-AEFFKLGPNGYVYL[dH]SA-NH2) | – | 36% | 41% | – |
| CC(C)C[C@H](NC(=O)[C@H](CCCCN)NC(=O)[C@H](Cc1ccccc1)NC(=O)[C@H](Cc1ccccc1)NC(=O)[C@H](CCC(=O)O)NC(=O)[C@H](C)N)C(=O)NCC(=O)N1CCC[C@H]1C(=O)N[C@@H](CC(N)=O)C(=O)NCC(=O)N[C@@H](Cc1ccc(O)cc1)C(=O)N[C@H](C(=O)N[C@@H](Cc1ccc(O)cc1)C(=O)N[C@@H](CC(C)C)C(=O)N[C@@H](Cc1c[nH]cn1)C(=O)N[C@@H](CO)C(=O)N[C@H](C)C(N)=O)C(C)C [Analog 96] (H-AEFFKLGPNGYVYLHS[dA]-NH2) | – | 38* % | 40% | – |
| CC(C)C[C@H](NC(=O)[C@H](CCCCN)NC(=O)[C@H](Cc1ccccc1)NC(=O)[C@H](Cc1ccccc1)NC(=O)[C@H](CCC(=O)O)NC(=O)[C@H](C)N)C(=O)NCC(=O)N1CCC[C@H]1C(=O)N[C@@H](CC(N)=O)C(=O)NCC(=O)N[C@@H](Cc1ccc(O)cc1)C(=O)N[C@H](C(=O)N[C@@H](Cc1ccc(O)cc1)C(=O)N[C@@H](CC(C)C)C(=O)N[C@@H](Cc1c[nH]cn1)C(=O)N[C@H](CO)C(=O)N[C@@H](C)C(N)=O)C(C)C [Analog 95] (H-AEFFKLGPNGYVYLH[dS]A-NH2) | – | 47% | 59% | – |
| AEFAKLGPNGYVYLHSA [Analog 67] | decreased but did not destroy | – | – | – |
| AEFFKAGPNGYVYLHSA [Analog 69] | destroyed receptor binding activity | – | – | – |

Now from value to compound, other results behind:

| receptor binding activity, alanine scan of peptide 9 (soluble uPAR [1]) | % Inhibition 2.5 uM (soluble uPAR [1]) | % Inhibition 5 uM (soluble uPAR [1]) | Compound | further results |
| --- | --- | --- | --- | --- |
| – | 80* % | 76% | CC(C)C[C@H](NC(=O)[C@H](CCCCN)NC(=O)[C@H](Cc1ccccc1)NC(=O)[C@H](Cc1ccccc1)NC(=O)[C@H](CCC(=O)O)NC(=O)[C@H](C)N)C(=O)NCC(=O)N1CCC[C@@H]1C(=O)N[C@@H](CC(N)=O)C(=O)NCC(=O)N[C@@H](Cc1ccc(O)cc1)C(=O)N[C@H](C(=O)N[C@@H](Cc1ccc(O)cc1)C(=O)N[C@@H](CC(C)C)C(=O)N[C@@H](Cc1c[nH]cn1)C(=O)N[C@@H](CO)C(=O)N[C@@H](C)C(N)=O)C(C)C [Analog 88] (H-AEFFKLG[dP]NGYVYLHSA-NH2) | – |
| – | 8.5% | 3.3% | CC(C)C[C@H](NC(=O)[C@H](CCCCN)NC(=O)[C@H](Cc1ccccc1)NC(=O)[C@H](Cc1ccccc1)NC(=O)[C@H](CCC(=O)O)NC(=O)[C@H](C)N)C(=O)NCC(=O)N1CCC[C@H]1C(=O)N[C@@H](CC(N)=O)C(=O)NCC(=O)N[C@@H](Cc1ccc(O)cc1)C(=O)N[C@H](C(=O)N[C@H](Cc1ccc(O)cc1)C(=O)N[C@@H](CC(C)C)C(=O)N[C@@H](Cc1c[nH]cn1)C(=O)N[C@@H](CO)C(=O)N[C@@H](C)C(N)=O)C(C)C [Analog 92] (H-AEFFKLGPNGYV[dY]LHSA-NH2) | – |
| destroyed receptor binding activity | – | – | AEFFKLGPNGYVALHSA [Analog 76] | – |
| – | 44% | 59% | CC(C)C[C@H](NC(=O)[C@H](CCCCN)NC(=O)[C@H](Cc1ccccc1)NC(=O)[C@H](Cc1ccccc1)NC(=O)[C@@H](CCC(=O)O)NC(=O)[C@H](C)N)C(=O)NCC(=O)N1CCC[C@H]1C(=O)N[C@@H](CC(N)=O)C(=O)NCC(=O)N[C@@H](Cc1ccc(O)cc1)C(=O)N[C@H](C(=O)N[C@@H](Cc1ccc(O)cc1)C(=O)N[C@@H](CC(C)C)C(=O)N[C@@H](Cc1c[nH]cn1)C(=O)N[C@@H](CO)C(=O)N[C@@H](C)C(N)=O)C(C)C [Analog 83] (H-A[dE]FFKLGPNGYVYLHSA-NH2) | – |
| – | 79% | 80% | CC(C)C[C@H](NC(=O)[C@H](CCCCN)NC(=O)[C@H](Cc1ccccc1)NC(=O)[C@H](Cc1ccccc1)NC(=O)[C@H](CCC(=O)O)NC(=O)[C@H](C)N)C(=O)NCC(=O)N1CCC[C@H]1C(=O)N[C@@H](CC(N)=O)C(=O)N[C@H](C)C(=O)N[C@@H](Cc1ccc(O)cc1)C(=O)N[C@H](C(=O)N[C@@H](Cc1ccc(O)cc1)C(=O)N[C@@H](CC(C)C)C(=O)N[C@@H](Cc1c[nH]cn1)C(=O)N[C@@H](CO)C(=O)N[C@@H](C)C(N)=O)C(C)C [Analog 81] (H-AEFFKLGPN[dA]YVYLHSA-NH2) | – |
| destroyed receptor binding activity | – | – | AEFFKLGPNGAVYLHSA [Analog 74] | – |
| – | 15% | 13% | CC(C)C[C@H](NC(=O)[C@H](CCCCN)NC(=O)[C@H](Cc1ccccc1)NC(=O)[C@H](Cc1ccccc1)NC(=O)[C@H](CCC(=O)O)NC(=O)[C@H](C)N)C(=O)NCC(=O)N1CCC[C@H]1C(=O)N[C@H](CC(N)=O)C(=O)NCC(=O)N[C@@H](Cc1ccc(O)cc1)C(=O)N[C@H](C(=O)N[C@@H](Cc1ccc(O)cc1)C(=O)N[C@@H](CC(C)C)C(=O)N[C@@H](Cc1c[nH]cn1)C(=O)N[C@@H](CO)C(=O)N[C@@H](C)C(N)=O)C(C)C [Analog 89] (H-AEFFKLGP[dN]GYVYLHSA-NH2) | – |
| decreased but did not destroy | – | – | AEFFKLGPNGYVYAHSA [Analog 77] | – |
